Among the data in PubChem BioAssay (NCI) are TGI values, retold here.

Test systems include M19-MEL melanoma; P388/ADR leukemia; SN12K1 renal; DMS 273 small cell lung; HOP-18 NSCLC; DLD-1 colon; LXFL 529 NSCLC; RXF-631 renal.
Assay in all cases: NCI tumour cell line growth inhibition, 48 h

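Interpolation was linear, between the two tested concentrations surrounding the appropriate level; five concentrations were tested over 48 hours in 96-well plates. TGI denotes the concentration required for complete inhibition of growth.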

In the case of `CC1=NN(C(=O)c2ccc(C)cc2)C(=O)C1N=Nc1ccccc1C(=O)O` (configuration not stated), the TGI in the test with M19-MEL melanoma, in the test on P388/ADR leukemia, in the test with SN12K1 renal, in the test with DMS 273 small cell lung, in the test with HOP-18 NSCLC and in the test with DLD-1 colon was greater than 100 µM in each case.

As to `CCOC(=O)[C@H]1Nc2c(cccc2[N+](=O)[O-])C2c3ccccc3CC21` (some centres not stated), the TGI with M19-MEL melanoma, in the test on LXFL 529 NSCLC, in the test on RXF-631 renal, in the test with DMS 273 small cell lung and in the test with DLD-1 colon was greater than 100 µM in each case.

Regarding `N/C(=N\N=C/c1cc([N+](=O)[O-])cc([N+](=O)[O-])c1O)NO`, the TGI was greater than 100 µM with M19-MEL melanoma; greater than 100 µM in the test with P388/ADR leukemia; 4.92 µM in the test with SN12K1 renal; greater than 43.3 µM with DMS 273 small cell lung; greater than 100 µM with HOP-18 NSCLC; greater than 100 µM in the test with DLD-1 colon.

For the molecule `O=C(/C=C\c1ccc(/C=C/C(=O)Nc2cccc(C3=NCCCN3)c2)cc1)Nc1cccc(C2=NCCCN2)c1`, the TGI with M19-MEL melanoma, in the test with P388/ADR leukemia, in the test on SN12K1 renal, in the test on DMS 273 small cell lung, in the test with HOP-18 NSCLC and with DLD-1 colon was greater than 100 µM in each case.

`Clc1cccc(C2SCc3nc4ccccc4n32)c1` (configuration not stated): the TGI with M19-MEL melanoma was 58.4 µM; in the test with LXFL 529 NSCLC it was greater than 100 µM; with HOP-18 NSCLC it was 47.5 µM; in the test on DLD-1 colon, 34.1 µM.
